Experimental data: patent publication US20250000785A1, “COSMETIC COMPOSITION COMPRISING CRANBERRY EXTRACT AND CRANBERRY SEED OIL” (Givaudan SA, priority 2021, published 2025)

Test system: TNF-α release of Normal Human Epidermal Keratinocytes (NHEKs) stressed with PMA
Assay: TNF-α release by NHEKs stressed with PMA (ELISA quantification, normalised with MTT)
Type: cell-based
Conditions: dexamethasone 1 μM, 24 h pre-incubation, then PMA 1 ng/ml 24 h; vs untreated PMA-stressed NHEKs; p<0.001
Description: The effect of a cranberry extract, a cranberry seed oil and combinations of a cranberry extract and a cranberry seed oil on the anti-inflammatory activity of keratinocytes stressed with PMA was evaluated by comparing the decrease of the cytokine TNF-α release of Normal Human Epidermal Keratinocytes (NHEKs) treated with the cranberry products and stressed with PMA (Phorbol 12-myristate 13-acetate) with the TNF-α release of untreated NHEKs stressed with PMA.
The cell culture was done on primary cells isolated from fresh biopsies. NHEKs were seeded in a type I collagen pre-coated 24 wells-plate at 30 000 cells per well in triplicate. […]
A MTT assay was performed to evaluate treatments toxicity and for the normalisation of TNF-α quantification.
MTT solution (Sigma) diluted at 1 mg/mL in basal medium was added to each well and incubated for 3 hours at 37° C., 5% CO2. […] The optical density was measured at a wavelength of 560 nm.
The TNF-α quantification was realized with the Human TNF-alpha Quantikine ELISA kit (DTA00D, R&D Systems).
The samples and the standard range were incubated for 2 hours in 96-wells plate pre-coated with a monoclonal antibody specific for human TNF-α in presence of the Assay Diluent RD1F. […] The optical density was measured at 450 nm and 540 nm with a microplate reader (TECAN SPARK® 10M). […]
The quantification was carried out in duplicate. […]

C[C@@H]1C[C@H]2[C@@H]3CCC4=CC(=O)C=C[C@]4(C)[C@@]3(F)[C@@H](O)C[C@]2(C)[C@@]1(O)C(=O)CO [dexamethasone, Dexamethasone]
reduction of the release of cytokine TNF-α: 46%
